Experimental data from patent US8445492B2, “Method for inhibiting growth of cancer cells and cell telomere and diseases of cell proliferation by using heteroannelated anthraquinone derivative compounds” (National Defense Medical Center, priority 2008, dated 2013).

How the values were obtained:
Format in all cases: cell-based
UO-31 [1] = experiment: in vitro test at 1.0×10^−5 M, Kidney cancer cell; settings: 1.0×10^−5 molal concentration (M)
MCF7 = experiment: in vitro test at 1.0×10^−5 M, Breast cancer cell; settings: 1.0×10^−5 molal concentration (M)
T-47D = experiment: in vitro test at 1.0×10^−5 M, Breast cancer cell; settings: 1.0×10^−5 molal concentration (M)
MALME-3M = experiment: in vitro test at 1.0×10^−5 M, Skin cancer cell; settings: 1.0×10^−5 molal concentration (M)
HOP-92 = experiment: in vitro test at 1.0×10^−5 M, Non-small cell lung cancer cell; settings: 1.0×10^−5 molal concentration (M)
SK-MEL-2 = experiment: in vitro test at 1.0×10^−5 M, Skin cancer cell; settings: 1.0×10^−5 molal concentration (M)
IGROV1 = experiment: in vitro test at 1.0×10^−5 M, Ovary cancer cell; settings: 1.0×10^−5 molal concentration (M)
UACC-257 = experiment: in vitro test at 1.0×10^−5 M, Skin cancer cell; settings: 1.0×10^−5 molal concentration (M)
MDA-MB-468 = experiment: in vitro test at 1.0×10^−5 M, Breast cancer cell; settings: 1.0×10^−5 molal concentration (M)
MDA-MB-435 = experiment: in vitro test at 1.0×10^−5 M, Breast cancer cell; settings: 1.0×10^−5 molal concentration (M)
LOX IMV1 = experiment: in vitro test at 1.0×10^−5 M, Skin cancer cell; settings: 1.0×10^−5 molal concentration (M)
SN12C [2] = experiment: in vitro test at 1.0×10^−5 M, Kidney cancer cell; settings: 1.0×10^−5 molal concentration (M)
U251 = experiment: in vitro test at 1.0×10^−5 M, CNS cancer cell; settings: 1.0×10^−5 molal concentration (M)
HCC-2998 = experiment: in vitro test at 1.0×10^−5 M, Colorectal cancer cell; settings: 1.0×10^−5 molal concentration (M)
ACHN [3] = experiment: in vitro test at 1.0×10^−5 M, Kidney cancer cell; settings: 1.0×10^−5 molal concentration (M)
OVCAR-4 = experiment: in vitro test at 1.0×10^−5 M, Ovary cancer cell; settings: 1.0×10^−5 molal concentration (M)
[4] = test system: different cancer cell lines; experiment: in vitro test at 1.0×10^−5 M, summary over the cell lines; set-up: unit not given here; settings: 1.0×10^−5 molal concentration (M)
UACC-62 = experiment: in vitro test at 1.0×10^−5 M, Skin cancer cell; settings: 1.0×10^−5 molal concentration (M)
SF-539 = experiment: in vitro test at 1.0×10^−5 M, CNS cancer cell; settings: 1.0×10^−5 molal concentration (M)
MOLT-4 = experiment: in vitro test at 1.0×10^−5 M, Blood cancer cell; settings: 1.0×10^−5 molal concentration (M)
CAKI-1 = experiment: NCI DTP in-vitro dose response, Renal Cancer
TK-10 = experiment: NCI DTP in-vitro dose response, Renal Cancer
786-0 = experiment: NCI DTP in-vitro dose response, Renal Cancer
SN12C [5] = experiment: NCI DTP in-vitro dose response, Renal Cancer; settings: SN12C
A498 = experiment: NCI DTP in-vitro dose response, Renal Cancer
UO-31 [6] = experiment: NCI DTP in-vitro dose response, Renal Cancer
RXF 393 = experiment: NCI DTP in-vitro dose response, Renal Cancer
ACHN [7] = experiment: NCI DTP in-vitro dose response, Renal Cancer; settings: ACHN
[8] = read-out: LC50 (the source's name)

With `O=C1c2ccccc2C(=O)c2c1ccc1[nH]c(=O)c(=O)[nH]c21` [No. 26, Naphtho[2,3-f]quinoxaline-2,3,7,12 (1H,4H)-tetraone] the “inhibition effect on cancer cell line (Table 2 value)” value (“inhibition effect on cancer cell line” below) (UO-31 [1]) was 61.43, the “inhibition effect on cancer cell line” value (MCF7) was 85.17 and the “inhibition effect on cancer cell line” value (T-47D) was 87.10. The “inhibition effect on cancer cell line” value (MALME-3M) was 149.83, the “inhibition effect on cancer cell line” value (HOP-92) was −15.08 and the “inhibition effect on cancer cell line” value (SK-MEL-2) was 21.96. The “inhibition effect on cancer cell line” value (IGROV1) was 13.36, the “inhibition effect on cancer cell line” value (UACC-257) was 118.21 and the “inhibition effect on cancer cell line” value (MDA-MB-468) was 38.35. The “inhibition effect on cancer cell line” value (MDA-MB-435) was 144.42, the “inhibition effect on cancer cell line” value (LOX IMV1) was 96.94 and the “inhibition effect on cancer cell line” value (SN12C [2]) was 94.07. For the same molecule, the “inhibition effect on cancer cell line” value (U251) was 95.92, the “inhibition effect on cancer cell line” value (HCC-2998) was 77.59 and the “inhibition effect on cancer cell line” value (ACHN [3]) was 81.33. For the same molecule, the “inhibition effect on cancer cell line” value (OVCAR-4) was 103.31, the Mean [4] was 100.83 and the “inhibition effect on cancer cell line” value (UACC-62) was 95.25. The “inhibition effect on cancer cell line” value (SF-539) was 101.16 and the “inhibition effect on cancer cell line” value (MOLT-4) was 121.52.

In the case of `O=C1c2ccccc2C(=O)c2c1ccc1nccnc21` [TABLE 5-7], the TGI (CAKI-1; CAKI-1) is reported as greater than 1.00E−4, the “Percent Growth” value (CAKI-1; CAKI-1, Log10 Concentration −4.0) is reported as 4% and the “Percent Growth” value (CAKI-1; CAKI-1, Log10 Concentration −5.0) is reported as 39%. For the same molecule, the “Percent Growth” value (CAKI-1; CAKI-1, Log10 Concentration −6.0) was 87%, the “Percent Growth” value (CAKI-1; CAKI-1, Log10 Concentration −7.0) was 89% and the “Percent Growth” value (CAKI-1; CAKI-1, Log10 Concentration −8.0) was 94%. It also gave a GI50 (CAKI-1; CAKI-1, read-out: GI50) of 5.83 µM, a CC50 (CAKI-1; CAKI-1, read-out: LC50 (the source's name)) greater than 100 µM and a TGI (TK-10; TK-10) greater than 1.00E−4. For the same molecule, the “Percent Growth” value (TK-10; TK-10, Log10 Concentration −4.0) was 2%, the “Percent Growth” value (TK-10; TK-10, Log10 Concentration −5.0) was 36% and the “Percent Growth” value (TK-10; TK-10, Log10 Concentration −6.0) was 83%. For the same molecule, the “Percent Growth” value (TK-10; TK-10, Log10 Concentration −7.0) was 85%, the “Percent Growth” value (TK-10; TK-10, Log10 Concentration −8.0) was 102% and the GI50 (TK-10; TK-10, read-out: GI50) was 5 µM. The CC50 (TK-10; TK-10, read-out: LC50 (the source's name)) was greater than 100 µM, the TGI (786-0; 786-0) was greater than 1.00E−4 and the “Percent Growth” value (786-0; 786-0, Log10 Concentration −4.0) was 15%. The “Percent Growth” value (786-0; 786-0, Log10 Concentration −5.0) was 47%, the “Percent Growth” value (786-0; 786-0, Log10 Concentration −6.0) was 104% and the “Percent Growth” value (786-0; 786-0, Log10 Concentration −7.0) was 101%. For the same molecule, the “Percent Growth” value (786-0; 786-0, Log10 Concentration −8.0) was 98%, the GI50 (786-0; 786-0, read-out: GI50) was 8.87 µM and the CC50 (786-0; 786-0, read-out: LC50 (the source's name)) was greater than 100 µM. The TGI (SN12C [5]) was 9.27E−5, the “Percent Growth” value (SN12C [5]; Log10 Concentration −4.0) was −2% and the “Percent Growth” value (SN12C [5]; Log10 Concentration −5.0) was 57%. For the same molecule, the “Percent Growth” value (SN12C [5]; Log10 Concentration −6.0) was 78%, the “Percent Growth” value (SN12C [5]; Log10 Concentration −7.0) was 71% and the “Percent Growth” value (SN12C [5]; Log10 Concentration −8.0) was 87%. The GI50 (SN12C [5]; read-out: GI50) was 13.2 µM, the CC50 (SN12C [5]; [8]) was greater than 100 µM and the TGI (A498; A498) was 5.03E−5. The “Percent Growth” value (A498; A498, Log10 Concentration −4.0) was −21%, the “Percent Growth” value (A498; A498, Log10 Concentration −5.0) was 49% and the “Percent Growth” value (A498; A498, Log10 Concentration −6.0) was 89%. The “Percent Growth” value (A498; A498, Log10 Concentration −7.0) was 85%, the “Percent Growth” value (A498; A498, Log10 Concentration −8.0) was 93% and the GI50 (A498; A498, read-out: GI50) was 9.31 µM. For the same molecule, the CC50 (A498; A498, read-out: LC50 (the source's name)) was greater than 100 µM, the TGI (UO-31 [6]; UO-31) was 8.59E−5 and the “Percent Growth” value (UO-31 [6]; UO-31, Log10 Concentration −4.0) was −2%. For the same molecule, the “Percent Growth” value (UO-31 [6]; UO-31, Log10 Concentration −5.0) was 25%, the “Percent Growth” value (UO-31 [6]; UO-31, Log10 Concentration −6.0) was 73% and the “Percent Growth” value (UO-31 [6]; UO-31, Log10 Concentration −7.0) was 73%. For the same molecule, the “Percent Growth” value (UO-31 [6]; UO-31, Log10 Concentration −8.0) was 80%, the GI50 (UO-31 [6]; UO-31, read-out: GI50) was 3.02 µM and the CC50 (UO-31 [6]; UO-31, read-out: LC50 (the source's name)) was greater than 100 µM. For the same molecule, the GI50 (RXF 393; RXF 393) was 6.43 µM, the TGI (RXF 393; RXF 393) was greater than 1.00E−4 and the “Percent Growth” value (RXF 393; RXF 393, Log10 Concentration −4.0) was 7%. The “Percent Growth” value (RXF 393; RXF 393, Log10 Concentration −5.0) was 43%, the “Percent Growth” value (RXF 393; RXF 393, Log10 Concentration −6.0) was 81% and the “Percent Growth” value (RXF 393; RXF 393, Log10 Concentration −7.0) was 93%. For the same molecule, the “Percent Growth” value (RXF 393; RXF 393, Log10 Concentration −8.0) was 97%, the CC50 (RXF 393; RXF 393, read-out: LC50 (the source's name)) was greater than 100 µM and the TGI (ACHN [7]) was greater than 1.00E−4. The “Percent Growth” value (ACHN [7]; Log10 Concentration −4.0) was 2%, the “Percent Growth” value (ACHN [7]; Log10 Concentration −5.0) was 31% and the “Percent Growth” value (ACHN [7]; Log10 Concentration −6.0) was 77%. The “Percent Growth” value (ACHN [7]; Log10 Concentration −7.0) was 87%, the “Percent Growth” value (ACHN [7]; Log10 Concentration −8.0) was 98% and the GI50 (ACHN [7]; read-out: GI50) was 3.85 µM. It also gave a CC50 (ACHN [7]; [8]) greater than 100 µM.
